In US11452758B2, “Antimicrobial peptide derived from LL37 peptide and uses thereof” (INDUSTRY-ACADEMIC COOPERATION FOUNDATION, CHOSUN UNIVERSITY, priority 2018, dated 2022) one finds Minimal inhibitory concentration and Cell survival ability data, which are given here for one compound.

Converted amounts (≈) assume the structure as drawn. Where a SMILES comes first, the peptide text is derived from it.

For one data set, the system named is S. aureus ATCC 25923. It counts as cell-based, Staphylococcus aureus. The note with it: S. aureus ATCC 25923; MHB, 18 hours at 37° C. From the text: (§1) To compare the antimicrobial activity among the peptides produced by the method of Example 1, the inventors of the present invention measured the minimal growth inhibitory concentration (MIC), which is minimum concentration of the peptide not allowing any […] of bacterial cells.
(§2) Specifically, the bacterial strains described in the following Table 2 were purchased and cultured to a mid-log phase in MHB (Mueller Hinton Broth) medium. Then, after dilution to bacterial cell concentration of 2×10^5 cells/50 μl, the cells were inoculated to a microtiter plate (NUNC, USA). Thereafter, LL37-1, LL37-2, LL37-3 or LL37-4 peptide which has been synthesized in Example 1 above was subjected to serial dilution, ½ times for each, in a 96-well plate. After adding the peptides in an amount of 50 μl to the cell plate, the cells were cultured for 18 hours at 37° C. By using a microtiter plate reader (Merck Elisa reader, Germany), the absorbance was measured at a wavelength of 600 nm to determine the MIC value of each bacterial strain. As a control group, LL37 as a mother peptide was used and subjected to the same process as above to determine the MIC value of each strain.

Data set [1] concerns normal human fibroblast cell line (Hs27). The data set is described as follows: Cytotoxicity in normal cell line (MTT). The format is cell-based. The conditions noted are these: Hs27; peptide 32 μM; 24 hours; MTT. In a few lines:
(§3)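 HaCaT and Hs27 cells (1×10^4/well, DMEM with 10% FBS) were seeded 24 h, then exposed 24 h to peptides at 0.5–32 μM. Viability was measured by MTT reduction (1 h), with DMSO-dissolved formazan read at 570 nm.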

For data set [2], the system named is normal human keratinocyte cell line (HaCaT). Briefly: Cytotoxicity in normal cell line (MTT). The format is cell-based. The note with it: HaCaT; peptide 32 μM; 24 hours; MTT. In a few lines: as §3
For another data set, the system named is E. coli ATCC 25922. The format is cell-based, Escherichia coli. The note with it: E. coli ATCC 25922; MHB, 18 hours at 37° C.
Excerpt: as §1, §2

In data set [3] the test system is L. monocytogenes KCTC 3710. The format is cell-based, Listeria monocytogenes. The conditions noted are these: L. monocytogenes KCTC 3710; MHB, 18 hours at 37° C.
Excerpt: as §1, §2

In a further data set the test system is P. aeruginosa ATCC 27853. The format is cell-based, Pseudomonas aeruginosa. The note with it: P. aeruginosa ATCC 27853; MHB, 18 hours at 37° C.
Excerpt: as §1, §2

As for `CC[C@H](C)[C@H](NC(=O)[C@H](CCCNC(=N)N)NC(=O)[C@H](CCC(N)=O)NC(=O)[C@@H](NC(=O)[C@@H](NC(=O)[C@H](CCCNC(=N)N)NC(=O)[C@H](CCCCN)NC(=O)[C@H](Cc1ccccc1)NC(=O)[C@H](CCCCN)NC(=O)[C@@H](N)CCCCN)[C@@H](C)CC)C(C)C)C(=O)N[C@@H](CCCCN)C(=O)N[C@@H](CC(=O)O)C(=O)N[C@@H](Cc1ccccc1)C(=O)N[C@@H](CC(C)C)C(=O)N[C@@H](CCCNC(=N)N)C(=O)N[C@@H](CC(N)=O)C(N)=O` [LL37-2, KKFKRIVQRIKDFLRN-NH2] (H-KKFKRIVQRIKDFLRN-NH2), the Minimal inhibitory concentration is 2 µM (≈ 4.18 µg/mL) with S. aureus ATCC 25923, 16 µM (≈ 33.4 µg/mL) with E. coli ATCC 25922, 16 µM (≈ 33.4 µg/mL) in data set [3] and 8 µM (≈ 16.7 µg/mL) in the data set on P. aeruginosa ATCC 27853. Also, the values for the Cell survival ability in data set [1] and in data set [2] were 97% and 107%, respectively.
